Reference: patent US20090068290A1, “BIFEPRUNOX DOSES FOR TREATING SCHIZOPHRENIA” (priority 2006, published 2009)

Assays:
Assay type in all cases: in vivo, human
[1] = Weight, BMI and waist measurement, Clinical Study Four
Procedure: (§1) METHODOLOGY: This study was a multinational, multicenter, randomized, double-blind, parallel-group, placebo-controlled, fixed-dose study. The study consisted of a 3- to 6-day antipsychotic-free run-in period, after which patients were randomised to 6 months of double-blind treatment with fixed doses of bifeprunox (20 mg/day (BX20) or 30 mg/day (BX30)) or placebo (PBO). Patients allocated to the BX groups were up-titrated from 0.25 mg/day over 7 days (BX20) or 8 days (BX30), and then continued on these doses for the remainder of the study. […] At predetermined time points, blood samples were obtained for drug concentration analysis of BX and its major metabolites (3′- and 4′-sulfate conjugates of BX), and pharmaco-economic assessments were performed.

[2] = test system: patients with chronic schizophrenia; assay: CGI-I score and CGI-I responders (score 2 or less), Clinical Study Four; conditions: FAS; for proportion of patients with a CGI-I score ≦2 / CGI-I, Adjusted mean values (LS mean): LOCF; for CGI-I, Adjusted mean values (LS mean): adjusted mean values instead of change from baseline
Procedure: as §1
CLINICAL STUDY FOUR: The proportion of patients with a CGI-I score ≦2 at each visit (CGI-I responders; FAS, LOCF) is show below in FIG. 5.

[3] = Metabolic syndrome status, Clinical Study Four; conditions: 6 months
Procedure: as §1

[4] = test system: patients with chronic schizophrenia; assay: CDSS total score, Clinical Study Four; conditions: FAS, ANCOVA; for CDSS total, Adjusted Mean Change from Baseline (LS mean): LOCF
Procedure: as §1

[5] = BX20 (bifeprunox 20 mg), Last post-Baseline observation, APTS
[6] = BX20 (bifeprunox 20 mg), Month 3, APTS
[7] = BX20 (bifeprunox 20 mg), Month 6, APTS
[8] = BX20 (bifeprunox 20 mg), Week 6, APTS
[9] = BX20 (bifeprunox 20 mg), visit printed as Baseline, APTS
[10] = BX30 (bifeprunox 30 mg), Last post-Baseline observation, APTS
[11] = BX30 (bifeprunox 30 mg), Month 3, APTS
[12] = BX30 (bifeprunox 30 mg), Month 6, APTS
[13] = BX30 (bifeprunox 30 mg), Week 6, APTS

For `O=c1[nH]c2cccc(N3CCN(Cc4cccc(-c5ccccc5)c4)CC3)c2o1` [Bifeprunox, 7-[4-([1,1′-biphenyl]-3-ylmethyl)-1-piperazinyl]-2(3H)-benzoxazolone], the “BMI, Mean” value [1, 5] was 24.3, the “BMI, Median” value [1, 5] was 23.7 and the “Change from Baseline in BMI, Mean” value [1, 5] was −0.4. The “Change from Baseline in BMI, Median” value [1, 5] was 0.0, the “Change from Baseline in Weight, Mean” value [1, 5] was -1.0 kg and the “Change from Baseline in Weight, Median” value [1, 5] was 0.0 kg. The “Waist measurement, Mean” value [1, 5] was 81.6, the “Waist measurement, Median” value [1, 5] was 79.5 and the “Weight PCS High (Increase from baseline >= 7%), (%)” value [1, 5] was “(2.8) %”. For the same compound, the “Weight PCS Low (Decrease from baseline >= 7%), (%)” value [1, 5] was “(9.1) %”, the “Weight, Mean” value [1, 5] was 69.7 kg and the “Weight, Median” value [1, 5] was 68.0 kg. For the same compound, the “BMI, Mean” value [1, 6] was 23.9, the “BMI, Median” value [1, 6] was 23.1 and the “Change from Baseline in BMI, Mean” value [1, 6] was −0.2. For the same compound, the “Change from Baseline in BMI, Median” value [1, 6] was 0.0, the “Change from Baseline in Waist Measurement, Mean” value [1, 6] was −1.1 and the “Change from Baseline in Waist Measurement, Median” value [1, 6] was 0.0. The “Change from Baseline in Weight, Mean” value [1, 6] was -0.6 kg, the “Change from Baseline in Weight, Median” value [1, 6] was 0.0 kg and the “Waist measurement, Mean” value [1, 6] was 79.5. For the same compound, the “Waist measurement, Median” value [1, 6] was 76.5, the “Weight PCS High (Increase from baseline >= 7%), (%)” value [1, 6] was “(0.0) %” and the “Weight, Mean” value [1, 6] was 68.1 kg. For the same compound, the “Weight, Median” value [1, 6] was 66.0 kg, the “BMI, Mean” value [1, 7] was 23.9 and the “BMI, Median” value [1, 7] was 23.1. The “Change from Baseline in BMI, Mean” value [1, 7] was −0.2, the “Change from Baseline in BMI, Median” value [1, 7] was 0.0 and the “Change from Baseline in Waist Measurement, Mean” value [1, 7] was −0.9. For the same compound, the “Change from Baseline in Waist Measurement, Median” value [1, 7] was 0.0, the “Change from Baseline in Weight, Mean” value [1, 7] was -0.6 kg and the “Change from Baseline in Weight, Median” value [1, 7] was 0.0 kg. The “Waist measurement, Mean” value [1, 7] was 79.4, the “Waist measurement, Median” value [1, 7] was 77.7 and the “Weight PCS High (Increase from baseline >= 7%), (%)” value [1, 7] was “(6.8) %”. For the same compound, the “Weight PCS Low (Decrease from baseline >= 7%), (%)” value [1, 7] was “(10.2) %”, the “Weight, Mean” value [1, 7] was 68.2 kg and the “Weight, Median” value [1, 7] was 67.0 kg. For the same compound, the “BMI, Mean” value [1, 8] was 24.3, the “BMI, Median” value [1, 8] was 23.8 and the “Change from Baseline in BMI, Mean” value [1, 8] was −0.2. For the same compound, the “Change from Baseline in BMI, Median” value [1, 8] was 0.0, the “Change from Baseline in Waist Measurement, Mean” value [1, 8] was −1.1 and the “Change from Baseline in Waist Measurement, Median” value [1, 8] was 0.0. For the same compound, the “Change from Baseline in Weight, Mean” value [1, 8] was -0.6 kg, the “Change from Baseline in Weight, Median” value [1, 8] was 0.0 kg and the “Waist measurement, Mean” value [1, 8] was 81.6. For the same compound, the “Waist measurement, Median” value [1, 8] was 78.0, the “Weight PCS High (Increase from baseline >= 7%), (%)” value [1, 8] was “(0.0) %” and the “Weight PCS Low (Decrease from baseline >= 7%), (%)” value [1, 8] was “(4.8) %”. For the same compound, the “Weight, Mean” value [1, 8] was 69.7 kg, the “Weight, Median” value [1, 8] was 67.0 kg and the “Change from Baseline in Waist Measurement, Mean” value [1, 9] was −0.0. For the same compound, the “Change from Baseline in Waist Measurement, Median” value [1, 9] was 0.0, the “BMI, Mean” value [1, 10] was 24.5 and the “BMI, Median” value [1, 10] was 23.7. For the same compound, the “Change from Baseline in BMI, Mean” value [1, 10] was −0.4, the “Change from Baseline in BMI, Median” value [1, 10] was 0.0 and the “Change from Baseline in Waist Measurement, Mean” value [1, 10] was −0.4. For the same compound, the “Change from Baseline in Waist Measurement, Median” value [1, 10] was 4.4, the “Change from Baseline in Weight, Mean” value [1, 10] was -1.2 kg and the “Change from Baseline in Weight, Median” value [1, 10] was 0.0 kg. For the same compound, the “Waist measurement, Mean” value [1, 10] was 82.6, the “Waist measurement, Median” value [1, 10] was 80.4 and the “Weight PCS High (Increase from baseline >= 7%), (%)” value [1, 10] was “(2.7) %”. For the same compound, the “Weight PCS Low (Decrease from baseline >= 7%), (%)” value [1, 10] was “(9.5) %”, the “Weight, Mean” value [1, 10] was 70.9 kg and the “Weight, Median” value [1, 10] was 68.5 kg. The “BMI, Mean” value [1, 11] was 24.4, the “BMI, Median” value [1, 11] was 23.4 and the “Change from Baseline in BMI, Median” value [1, 11] was −0.1. The “Change from Baseline in Waist Measurement, Mean” value [1, 11] was −0.4, the “Change from Baseline in Waist Measurement, Median” value [1, 11] was 0.0 and the “Change from Baseline in Weight, Mean” value [1, 11] was -1.1 kg. The “Change from Baseline in Weight, Median” value [1, 11] was -0.5 kg, the “Waist measurement, Mean” value [1, 11] was 81.6 and the “Waist measurement, Median” value [1, 11] was 79.5. For the same compound, the “Weight PCS Low (Decrease from baseline >= 7%), (%)” value [1, 11] was “(11.4) %”, the “Weight, Mean” value [1, 11] was 70.1 kg and the “Weight, Median” value [1, 11] was 68.0 kg. The “BMI, Mean” value [1, 12] was 24.4, the “BMI, Median” value [1, 12] was 23.7 and the “Change from Baseline in BMI, Mean” value [1, 12] was −0.0. For the same compound, the “Change from Baseline in BMI, Median” value [1, 12] was 0.0, the “Change from Baseline in Waist Measurement, Mean” value [1, 12] was −0.0 and the “Change from Baseline in Waist Measurement, Median” value [1, 12] was 0.1. The “Change from Baseline in Weight, Mean” value [1, 12] was -0.1 kg, the “Change from Baseline in Weight, Median” value [1, 12] was 0.0 kg and the “Waist measurement, Mean” value [1, 12] was 81.1. For the same compound, the “Waist measurement, Median” value [1, 12] was 78.0, the “Weight PCS High (Increase from baseline >= 7%), (%)” value [1, 12] was “(7.3) %” and the “Weight PCS Low (Decrease from baseline >= 7%), (%)” value [1, 12] was “(7.3) %”. The “Weight, Mean” value [1, 12] was 71.4 kg, the “Weight, Median” value [1, 12] was 70.0 kg and the “BMI, Mean” value [1, 13] was 24.8. For the same compound, the “BMI, Median” value [1, 13] was 23.9, the “Change from Baseline in BMI, Mean” value [1, 13] was −0.3 and the “Change from Baseline in BMI, Median” value [1, 13] was 0.0. For the same compound, the “Change from Baseline in Waist Measurement, Mean” value [1, 13] was −0.0, the “Change from Baseline in Waist Measurement, Median” value [1, 13] was 0.0 and the “Change from Baseline in Weight, Mean” value [1, 13] was -0.9 kg. For the same compound, the “Change from Baseline in Weight, Median” value [1, 13] was 0.0 kg, the “Waist measurement, Mean” value [1, 13] was 83.9 and the “Waist measurement, Median” value [1, 13] was 80.0. For the same compound, the “Weight PCS High (Increase from baseline >= 7%), (%)” value [1, 13] was “(0.0) %”, the “Weight PCS Low (Decrease from baseline >= 7%), (%)” value [1, 13] was “(4.7) %” and the “Weight, Mean” value [1, 13] was 72.2 kg. For the same compound, the “Weight, Median” value [1, 13] was 70.0 kg, the “proportion of patients with a CGI-I score ≦2” value (“proportion of patients” below) ([2]; BX20, Month 6) was 22% and the “proportion of patients” value ([2]; BX20, Week 6) was 17%. The “proportion of patients” value ([2]; BX30, Month 6) was 20%, the “proportion of patients” value ([2]; BX30, Week 6) was 19% and the “CGI-I, Adjusted mean values (LS mean)” value ([2]; Month 6, ANCOVA) was 4.0. For the same compound, the “CGI-I, Adjusted mean values (LS mean)” value ([2]; Week 6, ANCOVA, listed as BX20) was 3.8, the “CGI-I, Adjusted mean values (LS mean)” value ([2]; Week 6, ANCOVA, listed as BX30) was 3.7 and the “mean CGI-I scores versus PBO, per-visit LOCF analysis” value ([2]; both BX doses, ANCOVA) was “statistically significantly superior to PBO from Week 6 onwards”. The “effect on patients' status of metabolic syndrome” value ([3]; BX either dose (20 or 30 mg/day)) was “no treatment effect”, the “metabolic profile (weight changes, blood lipids, metabolic syndrome)” value ([3]; bifeprunox 20 or 30 mg/day) was “A favorable metabolic profile” and the “CDSS total, Adjusted Mean Change from Baseline (LS mean)” value (shortened to “CDSS total, Adjusted Mean Change”) ([4]; Month 6, listed as BX20) was 0.0. The “CDSS total, Adjusted Mean Change” value ([4]; Month 6, listed as BX30) was 0.1, the “CDSS total, Adjusted Mean Change” value ([4]; Week 6, listed as BX20) was −0.2 and the “CDSS total, Adjusted Mean Change” value ([4]; Week 6, listed as BX30) was −0.1. For the same compound, the “mean CDSS total scores versus PBO, per-visit LOCF analysis” value ([4]; either BX group) was “no statistically significant differences”.
